Results taken from publication PMC5887109, “Unravelling the Molecular Determinants of Bee Sensitivity to Neonicotinoid Insecticides” (Current Biology, 2018).

What was measured:
[1] = tested on: transgenic Drosophila expressing B. terrestris CYP9Q4; test: Insecticide bioassay of transgenic Drosophila expressing CYP9Q4; format: in vivo, Drosophila melanogaster; conditions: Act5C-GAL4 driven; ratio of LC50 values
Description: (§1) Fly lines were made homozygous for the transgene integrations. […] LC50 values were calculated as above.

[2] = tested on: transgenic Drosophila expressing B. terrestris CYP9Q5; test: Insecticide bioassay of transgenic Drosophila expressing CYP9Q5; format: in vivo, Drosophila melanogaster; conditions: Act5C-GAL4 driven; ratio of LC50 values
Description: as §1

[3] = tested on: transgenic Drosophila expressing honeybee CYP9Q3; test: Insecticide bioassay of transgenic Drosophila expressing CYP9Q3; format: in vivo, Drosophila melanogaster; conditions: Act5C-GAL4 driven; ratio of LC50 values
Description: as §1

[4] = tested on: transgenic Drosophila expressing honeybee CYP9Q1; test: Insecticide bioassay of transgenic Drosophila expressing CYP9Q1; format: in vivo, Drosophila melanogaster; conditions: Act5C-GAL4 driven; ratio of LC50 values
Description: as §1

[5] = tested on: transgenic Drosophila expressing honeybee CYP9Q2; test: Insecticide bioassay of transgenic Drosophila expressing CYP9Q2; format: in vivo, Drosophila melanogaster; conditions: Act5C-GAL4 driven; ratio of LC50 values
Description: as §1

A. mellifera = test: Acute contact (topical) insecticide bioassay of honeybees, with or without ABT; conditions: honeybees pretreated with ABT (1-aminobenzotriazole)
Description: Acute contact insecticide assays were performed on female A. mellifera following standard methods OECD 2013 [30]. Bioassays of B. terrestris were based on the OECD guidelines developed for honeybees but with bees assayed in individual Nicot cages. Bees were starved of sucrose solution for up to 2 hr to encourage feeding during the experiment. […] Controls were fed a solution of sucrose containing a concentration of acetone matching that of the highest treatment concentration. After 4-6 hr the syringes were assessed to see if bees had consumed the insecticide-sucrose solution. Those that had not consumed all of the solution were excluded from the experiment. Mortality was assessed 48 hr after feeding and lethal concentrations (LC50 values) were calculated by probit analysis using Genstat version 16 (VSN International). For synergist bioassays, B. terrestris or A. mellifera workers were first treated with 20 μg of piperonyl butoxide or 1 μg of aminobenzotriazole applied to the dorsal thorax. Synergist bioassays included an additional control group treated only with the synergist. 1 hr after synergist application, bees were then treated with the appropriate insecticide dosage as above.

[6] = molecular target: nicotinic acetylcholine receptor (nAChR); test: [3H]imidacloprid displacement, bumble bee head membrane preparations; format: binding, B. terrestris; conditions: bumble bee head membranes; 95% CI given in text
Description: [^3H]imidacloprid (specific activity 1.406 GBq μmol^−1) displacement studies were conducted using membrane preparations isolated from frozen (−80°C) honeybee and bumble bee heads, respectively, following previously published protocols. Briefly, bee heads weighing 10cg were homogenized in 200cml ice-cold 0.1cM potassium phosphate buffer, pH 7.4 containing 95cmM sucrose using a motor-driven Ultra Turrax blender. […] Assays were performed in a 96-well microtiter plate with bonded GF/C filter membrane (Packard UniFilter-96, GF/C) and consisted of 200 μL of homogenate (0.48cmg protein), 25 μL of [^3H]imidacloprid (576cpM) and 25 μL of competing ligand. Ligand concentrations used ranged from 0.001 to 10c000cnM and were tested at least in duplicate per competition assay. The assay was started by the addition of homogenate and incubated for 60cmin at room temperature. Bound [^3H]imidacloprid was quantified by filtration into a second 96-well filter plate (conditioned with ice-cold 100cmM potassium phosphate buffer, pH 7.4 (including BSA 5cg liter−1)) using a commercial cell harvester (Brandel). […] Each well was then loaded with 25 μL of scintillation cocktail (Microszint-O-Filtercount, Packard) and the plate counted in a Topcount scintillation counter (Packard). Non-specific binding was determined using a final concentration of 10cμM unlabelled imidacloprid. […]

CYP9Q5 = test: Metabolism by recombinant CYP9Q5/CPR microsomes, LC-MS/MS
From the text: (§2) All bee P450 (see Table S3 for accession numbers) and house fly NADPH-dependent cytochrome P450 reductase (CPR) (GenBank accession number Q07994) genes were obtained by gene synthesis (Geneart, CA, USA) and inserted into the pDEST8 expression vector (Invitrogen). Codon optimization of all bee genes was used to optimize expression in lepidopteran cell lines. The PFastbac1 vector with no inserted DNA was used to produce a control virus. The recombinant baculovirus DNA was constructed and transfected into Trichoplusia ni (High five cells, Thermo Fisher) using the Bac-to-Bac baculovirus expression system (Invitrogen) according to the manufacturer’s instructions. The titer of the recombinant virus was determined following protocols of the supplier. High Five cells grown to a density of 2 × 10^6 cells ml^-1 were co-infected with recombinant baculoviruses containing each bee P450 and CPR with a range of MOI (multiplicity of infection) ratios to identify the optimal conditions. Control cells were co-infected with the baculovirus containing vector with no insert (ctrl-virus) and the recombinant baculovirus expressing CPR using the same MOI ratios. Ferric citrate and δ-aminolevulinic acid hydrochloride were added to a final concentration of 0.1 mM at the time of infection and 24 h after infection to compensate the low levels of endogenous heme in the insect cells. After 48 h, cells were harvested, washed with PBS, and microsomes of the membrane fraction prepared according to standard procedures and stored at −80°C [31]. Briefly, pellets were homogenized for 30 s in 0.1M Na/K-phosphate buffer, pH 7.4 containing 1mM EDTA and DTT and 200mM sucrose using a Fastprep (MP Biomedicals), filtered through miracloth and centrifuging for 10 min at 680 g at 4°C. The supernatant was then centrifuged for 1 h at 100,000 g at 4°C, with the pellet subsequently resuspended in 0.1M Na/K-phosphate buffer, pH 7.6 containing 1mM EDTA and DTT and 10% glycerol using a Dounce tissue grinder. P450 expression and functionality was estimated by measuring CO-difference spectra in reduced samples using a Specord 200 Plus Spectrophotometer (Analytik Jena) and scanning from 500 nm to 400 nm. The protein content of samples was determined using Bradford reagent (Sigma) and bovine serum albumin (BSA) as a reference.
(§3) The total assay volume was 200 μL using three replicates for each data point. […] The assay was stopped by the addition of ice-cold acetonitrile (to 80% final concentration), centrifuged for 10 min at 3000 g and the supernatant subsequently analyzed by tandem mass spectrometry as described previously. […] Substrate turnover from two independent reactions were plotted versus controls and Michaelis-Menten kinetics determined using GraphPad Prism version 7 (GraphPad Software, CA, USA).

CYP9Q4 = CYP9Q4 (Bombus terrestris, UniProt A0A9B0BBT5); test: Metabolism by recombinant CYP9Q4/CPR microsomes, LC-MS/MS
From the text: as §2, §3

CYP6AS5 = test: Metabolism by recombinant CYP6AS5/CPR microsomes, LC-MS/MS; conditions: thiacloprid hydroxylation
From the text: All bee P450 (see Table S3 for accession numbers) and house fly NADPH-dependent cytochrome P450 reductase (CPR) (GenBank accession number Q07994) genes were obtained by gene synthesis (Geneart, CA, USA) and inserted into the pDEST8 expression vector (Invitrogen). Codon optimization of all bee genes was used to optimize expression in lepidopteran cell lines. The PFastbac1 vector with no inserted DNA was used to produce a control virus. The recombinant baculovirus DNA was constructed and transfected into Trichoplusia ni (High five cells, Thermo Fisher) using the Bac-to-Bac baculovirus expression system (Invitrogen) according to the manufacturer’s instructions. The titer of the recombinant virus was determined following protocols of the supplier. […] The protein content of samples was determined using Bradford reagent (Sigma) and bovine serum albumin (BSA) as a reference.
as §3

[7] = apparent value, mean ± SD (n=3), decimal commas
[8] = hydroxylation (thiacloprid) or N-desmethylation (acetamiprid)

Sequence of CYP9Q4 (Q07994 whole entry): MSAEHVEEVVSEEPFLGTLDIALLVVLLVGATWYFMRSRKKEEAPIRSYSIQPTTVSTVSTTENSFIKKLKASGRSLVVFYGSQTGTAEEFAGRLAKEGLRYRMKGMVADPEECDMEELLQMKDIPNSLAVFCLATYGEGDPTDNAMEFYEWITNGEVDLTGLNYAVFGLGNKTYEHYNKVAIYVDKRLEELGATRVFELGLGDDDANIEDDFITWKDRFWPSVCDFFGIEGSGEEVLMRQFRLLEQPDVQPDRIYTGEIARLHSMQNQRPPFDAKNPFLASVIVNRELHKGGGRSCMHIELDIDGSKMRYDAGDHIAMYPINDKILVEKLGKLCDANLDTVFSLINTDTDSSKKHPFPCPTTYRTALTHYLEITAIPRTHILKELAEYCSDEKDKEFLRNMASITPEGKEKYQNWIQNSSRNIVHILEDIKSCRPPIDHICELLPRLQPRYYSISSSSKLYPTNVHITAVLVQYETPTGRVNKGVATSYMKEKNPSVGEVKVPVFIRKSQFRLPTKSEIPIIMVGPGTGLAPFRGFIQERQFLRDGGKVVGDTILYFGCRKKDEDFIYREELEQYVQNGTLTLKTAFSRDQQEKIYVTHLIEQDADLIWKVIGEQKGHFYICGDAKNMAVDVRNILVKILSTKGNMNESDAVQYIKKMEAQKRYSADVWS
Sequence of CYP9Q4 (A0A9B0BBT5 entry or part of it): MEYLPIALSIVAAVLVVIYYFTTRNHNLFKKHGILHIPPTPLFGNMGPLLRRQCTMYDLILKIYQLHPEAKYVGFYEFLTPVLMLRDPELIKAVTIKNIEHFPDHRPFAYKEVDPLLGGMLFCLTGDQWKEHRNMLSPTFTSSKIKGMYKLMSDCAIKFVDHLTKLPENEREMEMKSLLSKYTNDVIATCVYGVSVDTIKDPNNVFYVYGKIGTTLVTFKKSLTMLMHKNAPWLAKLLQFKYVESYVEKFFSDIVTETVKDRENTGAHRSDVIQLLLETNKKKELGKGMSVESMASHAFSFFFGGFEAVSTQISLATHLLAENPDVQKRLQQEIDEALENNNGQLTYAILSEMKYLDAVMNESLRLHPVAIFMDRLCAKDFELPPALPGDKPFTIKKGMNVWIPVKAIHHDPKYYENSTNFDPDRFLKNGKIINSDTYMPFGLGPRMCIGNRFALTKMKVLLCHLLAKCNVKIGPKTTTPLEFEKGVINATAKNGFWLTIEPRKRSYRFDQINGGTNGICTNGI

SMILES: O=[N+]([O-])NC1=NCCN1Cc1ccc(Cl)nc1 [imidacloprid]
- resistance compared to control flies without the transgene [1]: no significant differences
- resistance compared to control flies without the transgene [2]: no significant differences
- resistance compared to control flies without the transgene [3]: no significant differences in sensitivity
- resistance compared to control flies without the transgene [4]: no significant differences in sensitivity
- resistance compared to control flies without the transgene [5]: no significant differences in sensitivity
- fold more sensitive after pretreatment with ABT (A. mellifera): 2.7 fold
- IC50 [6]: 710 pM

SMILES: N#C/N=C1\SCCN1Cc1ccc(Cl)nc1 [thiacloprid]
- Km at 45 min (CYP9Q5; Bombus terrestris): 30 µM
- Vmax, thiacloprid hydroxylation (CYP9Q5; [7]): 4,29±0,71 pmol min-1 mg-1
- metabolism by the recombinant P450 (in words) (CYP9Q5; [8]): metabolize thiacloprid to its 5-hydroxy form
- Km at 45 min (CYP9Q4; Bombus terrestris): 11.8 µM
- Vmax, thiacloprid hydroxylation (CYP9Q4; [7]): 18,94±0,64 pmol min-1 mg-1
- metabolism by the recombinant P450 (in words) (CYP9Q4; [8]): metabolize thiacloprid to its 5-hydroxy form
- metabolism by the recombinant P450 (in words) (CYP6AS5): weak activity
- IC50 [6]: 620 pM
